Source: PubChem BioAssay AID1963860 (Molecular Pharmacology Branch, DTP, NCI, 2024)

Tested on: CN0375-F725-PDC KRAS spheroid viability
Test: Anticancer human tumor CN0375-F725-PDC patient-derived colon carcinoma cell line growth inhibition [KRAS2]
Settings: spheroids with HUVEC and MSC; for viability, T/C: stronger effect = lower value
Method in brief: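 KRAS-mutant tumor cells were grown as spheroids with HUVEC endothelial cells and human MSCs as stroma. Targeted agents were tested alone and with KRAS pathway inhibitors. Doses started at or near clinical Cmax, or 10 microM, descending half-log.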

[1] = curve of first compound, second compound 0.1 µM
[2] = curve of first compound, second compound 0.316 µM
[3] = curve of first compound, second compound 1 µM
[4] = curve of first compound, second compound 3.16 µM
[5] = curve of first compound, second compound 10 µM
[6] = second compound 0.1 µM, first compound 0.01 µM
[7] = second compound 0.1 µM, first compound 0.0316 µM
[8] = second compound 0.1 µM, first compound 0.1 µM
[9] = second compound 0.1 µM, first compound 0.316 µM
[10] = second compound 0.1 µM, first compound 1 µM
[11] = second compound 0.1 µM, first compound 3.16 µM
[12] = second compound 0.316 µM, first compound 0.01 µM
[13] = second compound 0.316 µM, first compound 0.0316 µM
[14] = second compound 0.316 µM, first compound 0.1 µM
[15] = second compound 0.316 µM, first compound 0.316 µM
[16] = second compound 0.316 µM, first compound 1 µM
[17] = second compound 0.316 µM, first compound 3.16 µM
[18] = second compound 1 µM, first compound 0.01 µM
[19] = second compound 1 µM, first compound 0.0316 µM
[20] = second compound 1 µM, first compound 0.1 µM
[21] = second compound 1 µM, first compound 0.316 µM
[22] = second compound 1 µM, first compound 1 µM
[23] = second compound 1 µM, first compound 3.16 µM
[24] = second compound 3.16 µM, first compound 0.01 µM
[25] = second compound 3.16 µM, first compound 0.0316 µM
[26] = second compound 3.16 µM, first compound 0.1 µM
[27] = second compound 3.16 µM, first compound 0.316 µM
[28] = second compound 3.16 µM, first compound 1 µM
[29] = second compound 3.16 µM, first compound 3.16 µM
[30] = second compound 10 µM, first compound 0.01 µM
[31] = second compound 10 µM, first compound 0.0316 µM
[32] = second compound 10 µM, first compound 0.1 µM
[33] = second compound 10 µM, first compound 0.316 µM
[34] = second compound 10 µM, first compound 1 µM
[35] = second compound 10 µM, first compound 3.16 µM
[36] = second compound 0.1 µM, first compound 10 µM
[37] = second compound 0.316 µM, first compound 10 µM
[38] = second compound 1 µM, first compound 10 µM
[39] = second compound 3.16 µM, first compound 10 µM
[40] = second compound 10 µM, first compound 10 µM
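Also: spheroids exposed to agents for 7 days.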

Row | Compound | IC50 [1] | IC50 [2] | IC50 [3] | IC50 [4] | IC50 [5] | viability, T/C [7] | viability, T/C [8] | viability, T/C [9] | viability, T/C [10] | viability, T/C [13] | viability, T/C [14] | viability, T/C [15] | viability, T/C [16] | viability, T/C [19] | viability, T/C [20] | viability, T/C [21] | viability, T/C [22] | viability, T/C [25] | viability, T/C [26] | viability, T/C [27] | also measured
1 | CC1COCCN1c1cc(-c2ccnn2C)c2ccnc(-c3ccn[nH]3)c2n1 (configuration not stated) + CNCc1ccccc1-c1csc(C(C)Nc2nc(C)nc3cc(OC)c(OC)cc23)c1 | > 3.16 µM | 3.1 µM | 0.127 µM | < 0.01 µM | < 0.01 µM | 88.5% | 80.7% | 76.2% | 68% | 89.7% | 74.1% | 70% | 59.4% | 64.3% | 44.1% | 45.1% | 39% | 0.28% | 0.36% | 0.41% | viability, T/C [6]: 97.8%; viability, T/C [11]: 52.1%; viability, T/C [12]: 92%; viability, T/C [17]: 49.5%; viability, T/C [18]: 63.5%; viability, T/C [23]: 23.5%; viability, T/C [24]: 0.32%; viability, T/C [28]: 0.44%; viability, T/C [29]: 0.54%; viability, T/C [30]: 0.45%; viability, T/C [31]: 0.24%; viability, T/C [32]: 0.19%; viability, T/C [33]: 0.24%; viability, T/C [34]: 0.24%; viability, T/C [35]: 0.21%
2 | CC1(C)CCC(CN2CCN(c3ccc(C(=O)NS(=O)(=O)c4ccc(NCC5CCOCC5)c([N+](=O)[O-])c4)c(Oc4cnc5[nH]ccc5c4)c3)CC2)=C(c2ccc(Cl)cc2)C1 + C=CC(=O)N1CCN(c2nc(=O)n(-c3c(C)ccnc3C(C)C)c3nc(-c4c(O)cccc4F)c(F)cc23)C(C)C1 | 4.27 µM | 4.49 µM | 3.48 µM | 6.6 µM | 6.28 µM | 112% | 113% | 105% | 105% | 110% | 115% | 106% | 108% | 110% | 116% | 109% | 103% | 113% | 118% | 110% | viability, T/C [11]: 56.9%; viability, T/C [36]: 30.4%; viability, T/C [17]: 58.7%; viability, T/C [37]: 30.2%; viability, T/C [23]: 52.3%; viability, T/C [38]: 23.5%; viability, T/C [28]: 104%; viability, T/C [29]: 60.1%; viability, T/C [39]: 44.3%; viability, T/C [31]: 101%; viability, T/C [32]: 104%; viability, T/C [33]: 106%; viability, T/C [34]: 103%; viability, T/C [35]: 63.8%; viability, T/C [40]: 40.6%
3 | CN(C)C/C=C/C(=O)Nc1cc2c(Nc3ccc(F)c(Cl)c3)ncnc2cc1O[C@H]1CCOC1 | – | – | – | – | – | – | – | – | – | – | – | – | – | – | – | – | – | – | – | – | viability, T/C (compound 0.000316 µM): 105% [middle of 5 runs]; viability, T/C (compound 0.001 µM): 94.1% [middle of 5 runs]; viability, T/C (compound 0.00316 µM): 90.4% [middle of 5 runs]; viability, T/C (compound 0.01 µM): 88.3% [middle of 5 runs]; viability, T/C (compound 0.0316 µM): 79.2% [middle of 5 runs]; viability, T/C (compound 0.1 µM): 81.1% [middle of 5 runs]; IC50 (curve of compound): > 0.1 µM
4 | COc1cc(Nc2ncc3c(n2)-c2ccc(Cl)cc2C(c2c(F)cccc2OC)=NC3)ccc1C(=O)O + COc1cc2nc(C)nc(NC(C)c3cc(N)cc(C(F)(F)F)c3)c2cc1OC1CCOC1 | > 10 µM | > 10 µM | > 10 µM | > 10 µM | < 0.0316 µM | 95.9% | 93.2% | 88.8% | 88.2% | 97% | 97.6% | 90.5% | 87.8% | 91.7% | 95.6% | 89.8% | 85.1% | 84.8% | 88.3% | 72.7% | viability, T/C [11]: 87.3%; viability, T/C [36]: 71.8%; viability, T/C [17]: 83.1%; viability, T/C [37]: 71.8%; viability, T/C [23]: 83.9%; viability, T/C [38]: 69.4%; viability, T/C [28]: 79%; viability, T/C [29]: 75.9%; viability, T/C [39]: 64.6%; viability, T/C [31]: 27.6%; viability, T/C [32]: 15.6%; viability, T/C [33]: 13.9%; viability, T/C [34]: 15.7%; viability, T/C [35]: 15.5%; viability, T/C [40]: 7.94%
5 | CCN1CCN(Cc2ccc(Nc3ncc(F)c(-c4cc(F)c5nc(C)n(C(C)C)c5c4)n3)nc2)CC1 + COc1cc2nc(C)nc(NC(C)c3cc(N)cc(C(F)(F)F)c3)c2cc1OC1CCOC1 | > 1 µM | > 1 µM | > 1 µM | > 1 µM | < 0.00316 µM | 81.9% | 88.1% | 90.7% | 94.7% | 79.2% | 82% | 92.8% | 78% | 79.3% | 81.6% | 86.5% | 83% | 71.3% | 70.7% | 71.7% | viability, T/C (second compound 0.1 µM, first compound 0.00316 µM): 96.4%; viability, T/C [6]: 89.7%; viability, T/C (second compound 0.316 µM, first compound 0.00316 µM): 93%; viability, T/C [12]: 91.2%; viability, T/C (second compound 1 µM, first compound 0.00316 µM): 91.1%; viability, T/C [18]: 85.3%; viability, T/C (second compound 3.16 µM, first compound 0.00316 µM): 84.3%; viability, T/C [24]: 79.9%; viability, T/C [28]: 49.5%; viability, T/C (second compound 10 µM, first compound 0.00316 µM): 14.6%; viability, T/C [30]: 14.5%; viability, T/C [31]: 13.4%; viability, T/C [32]: 15.4%; viability, T/C [33]: 6.49%; viability, T/C [34]: 0.9%
